Test [1] deals with T1, L3MBTL1 (Homo sapiens, UniProt Q9Y468).
T1 sequence (Q9Y468 200-522 isoform Q9Y468-1 limits assumed): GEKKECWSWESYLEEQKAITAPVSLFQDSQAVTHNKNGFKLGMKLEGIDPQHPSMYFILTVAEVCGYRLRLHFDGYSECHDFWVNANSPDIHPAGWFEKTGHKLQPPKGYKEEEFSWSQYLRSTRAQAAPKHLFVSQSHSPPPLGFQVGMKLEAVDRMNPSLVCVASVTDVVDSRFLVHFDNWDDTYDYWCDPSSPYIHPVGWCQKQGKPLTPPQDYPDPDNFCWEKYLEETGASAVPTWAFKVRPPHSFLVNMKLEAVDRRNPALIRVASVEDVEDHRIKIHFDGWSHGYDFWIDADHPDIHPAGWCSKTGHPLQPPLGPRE
As to the kind of experiment: AlphaScreen histone peptide competition, L3MBTL1. As to conditions: sulfonamide series; footnote a of Table 2: no binding by AlphaScreen.

Test [2] has as its target T1, L3MBTL1. Description: ITC binding to wt L3MBTL1. As to conditions: single experiments, standard deviations from least square curve fitting.
Test [3] deals with T2, L3MBTL3 (Homo sapiens, UniProt Q96JM7).
T2 sequence (Q96JM7 225-555 limits assumed): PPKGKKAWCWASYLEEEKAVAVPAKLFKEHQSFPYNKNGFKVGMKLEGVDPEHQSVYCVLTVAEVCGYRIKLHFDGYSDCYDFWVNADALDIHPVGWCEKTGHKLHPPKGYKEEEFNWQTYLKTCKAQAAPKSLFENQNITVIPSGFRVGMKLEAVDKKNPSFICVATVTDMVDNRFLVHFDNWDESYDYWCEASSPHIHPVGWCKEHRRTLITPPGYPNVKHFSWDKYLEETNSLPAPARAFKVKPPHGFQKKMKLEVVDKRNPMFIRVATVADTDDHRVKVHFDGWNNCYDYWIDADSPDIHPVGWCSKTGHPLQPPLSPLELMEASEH
Description: AlphaScreen histone peptide competition, L3MBTL3. Type of test: binding. As to conditions: average of at least two independent trials ± SD.

In test [4] the target is T2, L3MBTL3. As to the kind of experiment: ITC binding to L3MBTL3. The note with it: data not shown.
The next test has as its target T3, PHF13 (Homo sapiens, UniProt Q86YI8).
T3 sequence (Q86YI8 232-280 limits assumed): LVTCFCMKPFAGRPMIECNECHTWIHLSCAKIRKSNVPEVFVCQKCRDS
As to the kind of experiment: AlphaScreen histone peptide competition, PHF13. As to conditions: average of at least two independent trials ± SD. It counts as binding.

The source of these data is publication PMC3109722 (Journal of medicinal chemistry, 2011).

Each structure is given as a SMILES string. Entries after “also recorded” stand apart in the source; their conditions may differ.

In the case of `O=S(=O)(NCCOCCN1CCCC1)c1cccc(Br)c1` [Compound 8], the “Binding by AlphaScreen” value at L3MBTL1 [1] is “did not show any activity; also recorded: No Binding ^a”.

In the case of `C[C@H]1CCN(CCCCCNS(=O)(=O)c2cccc(Br)c2)C1` [Compound 12], the “3MBTL1 Kd” value on L3MBTL1 [2] is recorded as “No Binding Interaction”.

Regarding `O=S(=O)(NCCCCCN1CCOCC1)c1cccc(Br)c1` [Compound 9], the “Binding by AlphaScreen” value at L3MBTL1 [1] is listed as “did not show any activity; also recorded: No Binding ^a”.

For `O=C(NCCCCCN1CCCC1)c1cncc(Br)c1` [Compound 7], at L3MBTL3 [3], the “L3MBTL3 IC50” value is on record as “weak binding”. Also, the “Binding to L3MBTL3 by ITC” value on L3MBTL3 [4] is reported as “Binding was confirmed”. In addition, the “PHF13 IC50” value on PHF13 is listed as “weak binding”.
